The values below are quoted from earlier work in patent publication US6730319B2, “Pharmaceutical compositions having depressed melting points” (Hoffmann-La Roche Inc., priority 2001, dated 2004).

For this data set the following is noted: in vivo.

On to `Cc1c(C)c2c(c(C)c1OC(=O)c1cccnc1)CC[C@@](C)(CCC[C@H](C)CCC[C@H](C)CCCC(C)C)O2` [alpha-tocopherol-nicotinate], for which the “bioavailability increase in the fed status compared to the fasted state” value was 28 fold.
